Measured values: a melting point compilation (Tetko et al.; mined from patent text by program, amines drawn as free bases though some values may be those of a salt)

SMILES	melting point [°C]
Fc1ccc(-c2ccc(-c3cc(N4CCNCC4)nnc3C(F)(F)F)cc2)cc1	162
CN(C)Cc1ccc([C@H]2CC[C@H](OC(=O)c3ccc(Cl)cc3)CC2)cc1	94 to 95
CCCCc1nn(-c2cc(NC(=O)CC)ccc2Cl)c(C#N)c1Cc1ccc(-c2ccccc2S(=O)(=O)NC(=O)OC(C)(C)C)cc1F	> 95
Cc1nc(-c2ccc(OC(C)C)c(C#N)c2)sc1C(=O)O	220 to 222
O=C1OC(=O)c2cc(N3C(=O)CCC3=O)ccc21	228 to 230
CC(Cc1ccc(Oc2cc(N3CCN(Cc4ccccc4)CC3)ncn2)cc1)(Oc1ccccc1)C(=O)O (configuration not stated)	107 to 109
COc1cc2c(cc1C(F)(F)F)N(C(=O)Nc1csc(-c3cccnc3)n1)CC2	> 200
CC(C)c1n[nH]c(Cl)c1C=NC(C#N)=C(N)C#N	145 to 150
COc1cc(N)c2nccc(C)c2c1Oc1ccc(Cl)cc1Cl	115 to 118
CC#CCOc1ccc(SC(CCCCCC)C(=O)O)cc1 (configuration not stated)	125
CCOC(=O)c1ccc(-c2cc3c(Nc4ccc(F)c(Cl)c4)ncnc3[nH]2)cc1	> 300
COCCOc1c(F)c(Oc2ccc(S(C)(=O)=O)nc2)cc2cc(C3=NCC(CCO)S3)[nH]c12 (configuration not stated)	160 to 161
CC(C)(C)OC(=O)c1ccc(CBr)cc1	53.4
CN(C)CCN1C(=O)c2cscc2N(C)c2ccccc21	147 to 149
CCOC(=O)CCCCCCCn1c(C)nc(-c2ccccc2)c1-c1ccccc1	135 to 136
COc1cc(-n2nc(C)[nH]c2=O)ccc1C	164 to 168
CC(C)[C@H](NC(=O)OCc1cccnc1)C(=O)N[C@@H](Cc1ccccc1)[C@@H](O)[C@@H](O)[C@H](Cc1ccccc1)NC(=O)OC(C)(C)C	175 to 178
CCn1cc(C(=O)NCc2ccc(Cl)cc2)c(=O)c2cc(CO)sc21	169 to 172
CC(C)C[C@@H](C#N)NC(=O)[C@@H]1CCCC[C@@H]1NC(=O)c1ccc(-n2cncn2)cc1	156 to 159
COc1ccc(N2CC(CN3CCC(O)(c4ccc(Cl)cc4)CC3)OC2=O)cc1 (configuration not stated)	143 to 144
NC(=O)N1C(=O)C(=C(OCOC(=O)COCC(=O)OCc2ccccc2)c2cccs2)c2cc(F)c(Cl)cc21	122
N#Cc1c(N2CCNCC2)c2cccnc2n(Cc2ccccc2)c1=O	211
C=CCN1CN(C(=O)c2c(F)cccc2F)C(=O)N(c2ccc(Cl)cc2)C1	87 to 88
Cc1n[nH]c2cc(-c3nn(Cc4oc5ccccc5c(=O)c4-c4cccc(F)c4)c4ncnc(N)c34)ccc12	246 to 248
CCCCN(C)C(=O)CSCCCCCCOc1ccc(C2=C(c3ccccc3)CCCc3cc(O)ccc32)cc1	103 to 105

SMILES	melting point [°C]
CC(C)CN(Cc1csc(C(C)C)n1)C(=O)N[C@H](C(=O)N[C@@H](Cc1ccccc1)C[C@H](O)[C@H](Cc1ccccc1)NC(=O)OCc1cncs1)C(C)C	60 to 61
CCOC(=O)c1ccc(-c2ccc(OCCCI)c(-c3ccc4c(c3)C(C)(C)CCC4(C)C)c2)cc1	118
C#CC(=O)NCc1ccccc1	165 to 167
CCOC(=O)c1cn(CC)c2nc(N3CCNCC3)ncc2c1=O	155
COC(=O)c1cc(S(C)(=O)=O)c(F)cc1Br	126
CCOC(=O)c1sc(-c2ccc(C#N)cc2)nc1C	144
CCCCNc1ccn2ncc(Br)c2n1	94 to 95
CCN(CC)CC(=O)Nc1ccc(NC(=O)CN(CC)CC)c2c1C(=O)c1ccccc1C2=O	85 to 86
CCCCc1nc(Sc2ccccc2)c(C(=O)OCC)[nH]1	74
CSCOC1CCC2C3CCC4=CC(=O)C=CC4(C)C3(F)C(OC(C)=O)CC12C (configuration not stated)	142 to 143
Cn1nc(N2c3ccccc3C[C@H]2C(=O)N2CCCC(C)(C)C2)ccc1=O	125 to 129
CCCCc1oc2ccccc2c1C(=O)Nc1ccc(-c2ccc(O)cc2)cc1	181 to 183
CCCc1nc2c(ccc3cc(C(=O)N4CCC(Cc5ccccc5)CC4)[nH]c32)o1	195 to 196
CNC(=O)C1=CC(COC)(COC)Oc2ccc([N+](=O)[O-])cc21	147 to 149
COc1ccc(-c2cc3c(OC)c(Br)c(OC)cc3o2)cc1	107 to 109
COc1ccc2[nH]nc(N3CCN(CCCc4c(C)[nH]c5ccccc45)CC3)c2c1	145 to 147
COC(=O)C=Cc1ccc(Br)cc1	80
Cc1nc(C)c(C(=O)NC(C)c2ccccc2)cc1CCl (configuration not stated)	165
CC1Cc2c(F)c(F)cc3c(=O)c(C(=O)O)cn(c23)N1C (configuration not stated)	270 to 271
COc1cccc2cc(C)c(C)nc12	138 to 139
Cc1cc(C(C)(C)C)c(O[Si](C)(C)N=C=S)c(C(C)(C)C)c1	83 to 84
COc1cc(OC)cc(-c2nc[nH]c2-c2ccc(OC)c(O)c2O)c1	132 to 134
O=C1c2ccccc2C(=O)N1OCc1c[nH]cn1	163 to 165
C(=C(c1ccccc1)c1ccccc1)C1CCN(CCCCCCc2cncnc2)CC1	88 to 90
CC(C)CC(=O)Nc1cccc(-c2ccnc3c(-c4cccc(Cl)c4)cnn23)c1	169 to 171

SMILES	melting point [°C]
N#CC1(c2ccc(F)cc2)C=CC(N2CCN(c3cccnn3)CC2)CC1 (configuration not stated)	189
CC(C)CCC(=O)N[C@@H](CC(C)C)C(=O)N[C@@H](C(C)C)[C@@H](O)c1c(-c2ccccc2)c1=O	148 to 151
O=C(O)c1ccc(Cl)cc1Cc1ccccc1	142 to 144
CCOC(=O)C=CC(=O)c1ccc(Oc2ccccc2)cc1	50 to 53.5
CCCC(=O)Nc1cc(/C=C/C(=O)N2CC(CCl)c3ccc(NC(=O)OCc4ccc([N+](=O)[O-])cc4)cc32)n(C)c1 (configuration not stated)	207 to 210
COC(=O)COc1c2ccccc2cc2c1c1c(C(N)=O)cccc1n2Cc1ccccc1	120 to 125
CC(=O)NCCC1CCc2ccc3c(c21)CCO3 (configuration not stated)	78 to 79
O=C(Nc1cccc(Oc2cccc(C(=O)O)c2)c1)NC12CC3CC(CC(C3)C1)C2	152 to 154
O=C1NCCN(N=Cc2ccccc2)C1=O	231 to 234
COc1cc(OC)c([N+](=O)[O-])c(OC)c1NC=O	98
CC(C)=CCN1Cc2cc(Cl)c(Cl)c3[nH]c(=S)n(c23)C[C@@H]1C	173
Oc1cc(-c2ccc(Cl)cc2)nc2ccc(F)cc12	> 350
COCCc1ccc(OCC(O)C(C)(C)N)cc1 (configuration not stated)	120 to 122
OC(CCn1ccnc1)c1ccc2c(c1)Cc1ccccc1-2 (configuration not stated)	144 to 146
CC(Nc1c(Nc2ccc(S(N)(=O)=O)cc2)c(=O)c1=O)C(C)(C)C (configuration not stated)	233 to 235
Cc1cccc2c(Cl)c(Cl)sc12	48 to 50
CC(O)(C(=O)Nc1ccc(C(=O)c2ccccc2)c(F)c1)C(F)(F)F (configuration not stated)	132 to 134
COCCNC(N)=Nc1nc(-c2cccc(CNC(C)=O)c2)cs1	123 to 124
CCOC(=O)c1nnc2ccc(NS(C)(=O)=O)cc2c1O	274 to 275
NS(=O)(=O)c1ccc2c(c1)C(=O)C1(CCOC1=O)O2 (configuration not stated)	202 to 215
C/C=C(\C(=O)N(CC)CC)c1cc(OC)c(O)c2c(Cc3ccccc3)cccc12	86 to 87
CCOC(=S)CC/C(C)=C/Cc1c(OC)c(C)c2c(c1OC(N)=O)C(=O)OC2	145 to 147
CCCCCCCCOc1cccc2c1OCO2	120
NC(=O)CN1CC[C@@H](O)C1=O	195 to 196
COc1cccc(C(=O)NCCNC(=O)OC(C)(C)C)n1	104 to 105

SMILES	melting point [°C]
CC(C)(C)NS(=O)(=O)c1cccc2c1C(O)CCC2 (configuration not stated)	100 to 111
CC1CN(c2c(F)cc3c(=O)c(C(=O)O)cn(C4CC4)c3c2Cl)CC1N (configuration not stated)	231 to 234
Cc1nnc(-c2ccc3occ(-c4ccc(S(C)=O)cc4Cl)c3c2)o1 (configuration not stated)	175 to 176
CCOCc1nc2c(N)nc3ccccc3c2n1CC1(C(N)=O)CC1	230 to 232
COC(=O)C(CCCNC(=N)N[N+](=O)[O-])NC(=O)CCCC(=O)NCc1ccccc1 (single isomer, unassigned; (-))	97 to 99
COC(=O)c1nc(-c2ccc(Cl)cc2F)cc(NC(C)=O)c1O	201 to 206
CC(=O)C1CCC2C3CCC4CC(O)C(N5CCSC(C)(C)C5)CC4(C)C3CCC12C (configuration not stated)	184 to 185
COc1cc(COc2nn(-c3ccccc3)cc2/C=C2\SC(=O)NC2=O)ccc1OCc1nc(-c2ccco2)oc1C	252 to 253
COC(=O)Cc1ccc([N+](=O)[O-])cc1	45 to 46
Cc1nn(C)c2ncc3c(c12)CC(C)CC3 (configuration not stated)	121 to 123
CCCc1nc(C)cn1-c1nc(OC)ccc1N	124 to 128
CSc1sc2[nH]c(=O)c(=O)[nH]c2c1C#N	> 225
CCc1c(C(=O)c2cc(C)cc(C)c2)n(CCC2=CCCC2)c(=O)[nH]c1=O	211 to 213
C=CC(=O)Nc1cc2c(N(C(C)=O)c3ccc(F)c(Cl)c3)ncnc2cc1OCCCN1CCOCC1	143
CCCCN(CC1Cc2cc(Cl)cc(Cl)c2O1)C(=O)n1ccnc1 (configuration not stated)	98 to 100
COc1c(C)cc(-c2cncc(OC3SCC(O)C(O)C3O)c2)cc1C (configuration not stated)	173
Cc1ccc(C[C@H]2NC(=O)O[C@H]2c2ccc(F)cc2)cc1OC(F)(F)C(F)F (racemic)	112 to 113
CCOC(=O)c1cc2ccccc2n1Cc1ccc(Cl)cc1	107 to 108
O=C(Cc1c(-c2ccccc2)c2cc(CN3CCNCC3)c(Cl)cc2oc1=O)Nc1ccc(Cl)cc1C(F)(F)F	237 to 242
COCc1cc(C(O)CN(Cc2ccccc2)Cc2ccccc2)ccc1OCc1ccccc1 (configuration not stated)	52 to 57
CCCS(=O)(=O)c1cc([C@H]2C[C@H](c3cc(OC)c(OC)c(OC)c3)CO2)cc(OC)c1OCc1ccccc1 (relative stereo)	176 to 177
COc1cc(OC)nc(C(CC2CC2)C(=O)NS(C)(=O)=O)n1 (configuration not stated)	92 to 94
